Measurements published in patent publication US20220096486A1, “COMPOUNDS FOR USE IN THE TREATMENT OF ADCY5-RELATED DYSKINESIA” (ASSISTANCE PUBLIQUE - HOPITAUX DE PARIS, priority 2019, published 2022).
Entries after “also recorded” stand apart in the source; their conditions may differ.

How the values were obtained:
[1] = tested on: patient with ADCY5-related dyskinesia
Excerpt: The patient is a child with the disorder. Pregnancy, birth and first acquisitions were unremarkable. They developed diurnal and nocturnal episodes of hyperkinetic involuntary movements involving the face and upper limbs, lasting from a few seconds to ten minutes. There was a clear kinesigenic trigger for some of the episodes, others were exercise-induced, and a few were spontaneous. In addition, they were described as clumsy, and had difficulties in various activities of daily living such as fine motor tasks or riding a bike. Frequency of the episodes was around 30 per day, causing significant disruption of activities. […] Interictal neurological examination was normal except for some fleeting choreodystonic movements. Because of the co-occurrence of several types of paroxysmal dyskinesia, the patient was first tested for mutations in the SLC2A1 and ADCY5 genes. Genetic analysis was negative for SLC2A1 but found a mosaic heterozygous mutation in the ADCY5 gene (c.2088+1G>A), previously reported as pathogenic (Carapito et al., A de novo ADCY5 mutation causes early-onset autosomal dominant chorea and dystonia. Mov Disord. 2015; 30(3):423-7).
Caffeine was the first treatment tried.

[2] = tested on: patients with ADCY5-related dyskinesia; assay: Seven patients treated with caffeine; dyskinesia episodes and self-rated improvement; format: in vivo, human; conditions: 150 to 800 mg of caffeine per day, all cases
Method: Currently, seven patients are treated with caffeine with similar results with uptakes varying from 150 to 800 mg of caffeine per day. […] Four of them were asked to rate the improvement brought by caffeine on their involuntary movements, on a scale of 0 (no improvement) to 100% (major improvement with total disappearance of symptoms). All four reported an improvement of 80 to 100%.

[3] = tested on: A2AR knockout mice; conditions: cited from earlier work

Cn1c(=O)c2c(ncn2C)n(C)c1=O [caffeine, 1,3,7-trimethylxanthine]
effect of resuming caffeine intake after four days of decaffeinated coffee ([1]; after unknowing switch to decaffeinated coffee with reversal to baseline): immediately restored the improvement
effect on diurnal and nocturnal episodes of dyskinesia ([1]; espresso in the morning, second espresso in the afternoon, half an espresso at bedtime, baseline around 30 episodes per day): next to complete resolution; also recorded: near-complete resolution
remaining short and non-disruptive episodes during the day ([1]; espresso morning, afternoon and half at bedtime, baseline around 30 episodes per day): at most one or two
start of dramatic response after intake ([1]; one espresso in the morning, approximately 100 mg of caffeine, child, c.2088+1G>A ADCY5 mutation): 45 min
effect on dyskinesia episodes [2]: reduction or a suppression of dyskinesia episodes
wake-promoting effect [3]: abolished
